What was measured:
[1] = system: harmful plants such as Stellaria media, Lolium multiforum, Amaranthus retroflexus, Sinapis alba, Avena sativa and Setaria viridis; experiment: Pre-emergence effect on weeds (greenhouse pot test); type: in vivo; details: application rate of 1 kg or less of active ingredient per hectare; scored after 3 to 4 weeks by comparison with untreated controls
Description: Seeds or rhizome pieces of monocotyledonous and dicotyledonous weed plants were placed in sandy loam in plastic pots and covered with soil. The compounds according to the invention, which were formulated in the form of wettable powders or emulsion concentrates, were then applied to the surface of the soil cover as aqueous suspension or emulsion at various dosages with an application rate of 600 to 800 l of water per ha (converted).
After the treatment, the pots were placed into a greenhouse and kept under good growth conditions for the weeds. The plant or emergence damage was scored visually after the test plants have emerged after an experimental time of 3 to 4 weeks by comparison with untreated controls.

[2] = system: harmful plants such as Sinapis alba, Echinochloa crus-galli, Lolium multiflorum, Stellaria media, Cyperus iria, Amaranthus retroflexus, Setaria viridis, Avena …; experiment: Post-emergence effect on weeds (greenhouse pot test); type: in vivo; details: application rate of 2 kg or less of active ingredient per hectare; treated in the three-leaf stage; scored after approx. 3 to 4 weeks by comparison with untreated controls

Row | Structure (SMILES) | pre-emergence control of harmful plants (plant or emergence damage scored visually) [1] | herbicidal post-emergence activity against harmful plants (scored visually) [2]
1 | C[C@@H](Cl)c1nc(N)nc(N[C@@H]2CCCc3ccccc32)n1 [Compound 1.28] | very good pre-emergence control | very good herbicidal post-emergence activity
2 | C[C@@H](Cl)c1nc(N)nc(N[C@@H]2CCOc3ccccc32)n1 [Compound 1.31] | very good pre-emergence control | very good herbicidal post-emergence activity
3 | Cc1ccc2c(c1C)OCC[C@H]2Nc1nc(N)nc([C@@H](C)F)n1 [Compound 1.66] | very good pre-emergence control | very good herbicidal post-emergence activity
4 | C[C@@H](F)c1nc(N)nc(N[C@@H]2CCOc3c(F)cccc32)n1 [Compound 1.67] | very good pre-emergence control | very good herbicidal post-emergence activity
5 | CCc1ccc2c(c1)[C@H](Nc1nc(N)nc([C@@H](C)F)n1)CC2 [Compound 1.68] | very good pre-emergence control | very good herbicidal post-emergence activity
6 | COc1ccc2c(c1)[C@H](Nc1nc(N)nc([C@@H](C)F)n1)CC2 [Compound 1.69] | very good pre-emergence control | very good herbicidal post-emergence activity
7 | Cc1ccc2c(c1)[C@H](Nc1nc(N)nc([C@@H](C)F)n1)[C@@H](C)C2 [Compound 2.2] | very good pre-emergence control | very good herbicidal post-emergence activity
8 | C[C@@H](F)c1nc(N)nc(N[C@H]2c3cc(Cl)ccc3C[C@@H]2C)n1 [Compound 2.4] | very good pre-emergence control | very good herbicidal post-emergence activity
9 | C[C@@H](F)c1nc(N)nc(N[C@H]2c3ccccc3CC[C@@H]2C)n1 [Compound 2.11] | very good pre-emergence control | very good herbicidal post-emergence activity
10 | Cc1ccc2c(c1)[C@H](Nc1nc(N)nc([C@@H](C)Cl)n1)[C@@H](C)C2 [Compound 2.25] | very good pre-emergence control | very good herbicidal post-emergence activity
11 | Cc1ccc2c(c1)[C@H](Nc1nc(N)nc([C@@H](C)Cl)n1)[C@@H](C)CC2 [Compound 2.28] | very good pre-emergence control | very good herbicidal post-emergence activity
12 | C[C@H](F)c1nc(N)nc(N[C@@H]2CCc3ccccc32)n1 [Compound 3.1] | very good pre-emergence control | very good herbicidal post-emergence activity
13 | Cc1ccc2c(c1)[C@H](Nc1nc(N)nc([C@H](C)F)n1)CC2 [Compound 3.2] | very good pre-emergence control | very good herbicidal post-emergence activity
14 | Cc1cc2c(cc1C)[C@H](Nc1nc(N)nc([C@H](C)F)n1)CC2 [Compound 3.7] | very good pre-emergence control | very good herbicidal post-emergence activity
15 | C[C@H](F)c1nc(N)nc(N[C@@H]2CCCc3ccccc32)n1 [Compound 3.11] | very good pre-emergence control | very good herbicidal post-emergence activity
16 | Cc1cc(C)c2c(c1)[C@H](Nc1nc(N)nc([C@H](C)F)n1)CCC2 [Compound 3.15] | very good pre-emergence control | very good herbicidal post-emergence activity
17 | C[C@H](F)c1nc(N)nc(N[C@@H]2CCOc3ccccc32)n1 [Compound 3.20] | very good pre-emergence control | very good herbicidal post-emergence activity
18 | C[C@H](Cl)c1nc(N)nc(N[C@@H]2CCc3ccccc32)n1 [Compound 3.24] | very good pre-emergence control | very good herbicidal post-emergence activity

Row | Structure (SMILES) | pre-emergence control of harmful plants (plant or emergence damage scored visually) [1] | herbicidal post-emergence activity against harmful plants (scored visually) [2]
19 | C[C@H](F)c1nc(N)nc(N[C@H]2c3ccccc3C[C@@H]2C)n1 [Compound 4.1] | very good pre-emergence control | very good herbicidal post-emergence activity
20 | Cc1ccc2c(c1)CC(C)C2Nc1nc(N)nc(C(C)F)n1 (stereo not drawn) [Compound 4.2] | very good pre-emergence control | very good herbicidal post-emergence activity
21 | C[C@@H]1Cc2ccccc2[C@@H]1Nc1nc(N)nc([C@@H](C)F)n1 [Compound 5.1] | very good pre-emergence control | very good herbicidal post-emergence activity
22 | Cc1ccc2c(c1)[C@H](Nc1nc(N)nc([C@@H](C)F)n1)[C@H](C)C2 [Compound 5.2] | very good pre-emergence control | very good herbicidal post-emergence activity
23 | CC(F)c1nc(N)nc(NC2c3ccccc3CC2C)n1 (stereo not drawn) [Compound 6.1] | very good pre-emergence control | very good herbicidal post-emergence activity
24 | Cc1ccc2c(c1)C(Nc1nc(N)nc(C(C)F)n1)C(C)C2 (stereo not drawn) [Compound 6.2] | very good pre-emergence control | very good herbicidal post-emergence activity
25 | Cc1nc(N)nc(N[C@H]2c3ccccc3C[C@@H]2C)n1 [Compound 7.1] | very good pre-emergence control | very good herbicidal post-emergence activity
26 | Cc1ccc2c(c1)[C@H](Nc1nc(C)nc(N)n1)[C@@H](C)C2 [Compound 7.2] | very good pre-emergence control | very good herbicidal post-emergence activity
27 | Cc1nc(N)nc(N[C@H]2c3cc(F)ccc3C[C@@H]2C)n1 [Compound 7.3] | very good pre-emergence control | very good herbicidal post-emergence activity
28 | Cc1nc(N)nc(N[C@H]2c3cc(Cl)ccc3C[C@@H]2C)n1 [Compound 7.4] | very good pre-emergence control | very good herbicidal post-emergence activity
29 | Cc1nc(N)nc(N[C@H]2c3ccccc3CC[C@@H]2C)n1 [Compound 7.11] | very good pre-emergence control | very good herbicidal post-emergence activity
30 | CC(C)c1nc(N)nc(N[C@H]2c3ccccc3C[C@@H]2C)n1 [Compound 7.24] | very good pre-emergence control | very good herbicidal post-emergence activity
31 | CCCc1nc(N)nc(N[C@H]2c3ccccc3C[C@@H]2C)n1 [Compound 7.47] | very good pre-emergence control | very good herbicidal post-emergence activity
32 | CCCc1nc(N)nc(N[C@H]2c3cc(C)ccc3C[C@@H]2C)n1 [Compound 7.48] | very good pre-emergence control | very good herbicidal post-emergence activity
33 | CCCc1nc(N)nc(N[C@H]2c3ccccc3CC[C@@H]2C)n1 [Compound 7.57] | very good pre-emergence control | very good herbicidal post-emergence activity
34 | COCc1nc(N)nc(N[C@H]2c3ccccc3C[C@@H]2C)n1 [Compound 7.70] | very good pre-emergence control | very good herbicidal post-emergence activity
35 | COCc1nc(N)nc(N[C@H]2c3cc(C)ccc3C[C@@H]2C)n1 [Compound 7.72] | very good pre-emergence control | very good herbicidal post-emergence activity
36 | CCc1nc(N)nc(N[C@H]2c3ccccc3C[C@@H]2C)n1 [Compound 7.74] | very good pre-emergence control | very good herbicidal post-emergence activity

Reference: US8114991B2, “Amino-1,3,5-triazines N-substituted with chiral bicyclic radicals, process for their preparation, compositions thereof, and their use as herbicides and plant growth regulators” (Bayer Cropscience AG, priority 2003, dated 2012)
